The target of the first experiment is T1, Glycogen phosphorylase, muscle form (Oryctolagus cuniculus, UniProt P00489).
T1 sequence (P00489 whole entry): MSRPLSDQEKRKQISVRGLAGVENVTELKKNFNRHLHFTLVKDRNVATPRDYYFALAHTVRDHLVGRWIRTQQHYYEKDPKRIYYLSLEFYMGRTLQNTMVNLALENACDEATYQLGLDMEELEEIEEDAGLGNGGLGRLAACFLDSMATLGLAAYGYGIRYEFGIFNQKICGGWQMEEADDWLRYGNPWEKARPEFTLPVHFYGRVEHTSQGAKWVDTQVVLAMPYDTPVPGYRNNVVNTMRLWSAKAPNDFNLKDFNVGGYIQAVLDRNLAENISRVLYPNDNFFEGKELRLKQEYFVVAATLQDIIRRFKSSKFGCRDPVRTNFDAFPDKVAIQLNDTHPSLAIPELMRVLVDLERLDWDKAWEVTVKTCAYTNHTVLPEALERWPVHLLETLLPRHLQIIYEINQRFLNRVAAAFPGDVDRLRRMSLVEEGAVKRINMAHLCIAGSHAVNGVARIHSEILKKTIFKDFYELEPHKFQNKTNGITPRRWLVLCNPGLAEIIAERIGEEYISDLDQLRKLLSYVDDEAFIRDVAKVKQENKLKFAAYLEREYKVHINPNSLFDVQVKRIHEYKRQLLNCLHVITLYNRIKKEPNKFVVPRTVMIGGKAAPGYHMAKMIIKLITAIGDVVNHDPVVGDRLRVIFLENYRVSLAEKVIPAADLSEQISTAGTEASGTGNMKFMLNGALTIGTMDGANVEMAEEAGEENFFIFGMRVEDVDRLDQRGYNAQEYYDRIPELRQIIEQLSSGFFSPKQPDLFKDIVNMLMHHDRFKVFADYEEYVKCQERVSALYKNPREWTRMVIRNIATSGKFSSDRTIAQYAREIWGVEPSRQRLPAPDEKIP
In words: Inhibition of rabbit muscle glycogen phosphorylase assessed as release of phosphate from glucose-1-phosphate after 25 mins.
Conditions: not given; call rule not given here
Usually IC50 stands for the concentration that gives 50% inhibition. As to `CC1(C)CC[C@]2(C(=O)O)CC[C@]3(C)C(=CC[C@@H]4[C@@]5(C)C[C@@H](OC(=O)CCC(=O)O)CC(C)(C)[C@@H]5CC[C@]43C)[C@@H]2C1`, the concentration for half-maximal inhibition (IC50) entry is listed as “Not Active”.

Take `CC(=O)O[C@H]1CC(C)(C)[C@@H]2CC[C@]3(C)[C@H](CC=C4[C@@H]5CC(C)(C)CC[C@]5(C(=O)OCc5ccccc5)CC[C@]43C)[C@@]2(C)C1`: the IC50 result is “Not Active”.

Staying with this experiment, now noted: read-out: IC50.
Consider `CC1CC[C@]2(C(=O)OCc3ccccc3)CC[C@]3(C)C(=CC[C@@H]4[C@@]5(C)C[C@H](O)CC(C)(C)[C@@H]5CC[C@]43C)[C@@H]2[C@H]1C` (stereo partly specified), for which the IC50 was determined as 22.3 µM.

With `C[C@H]1[C@H](C)CC[C@]2(C(=O)OCc3ccccc3)CC[C@]3(C)C(=CC[C@@H]4[C@@]5(C)C[C@@H](O)CC(C)(C)[C@@H]5CC[C@]43C)[C@H]12`, the IC50 came out at 55.8 µM.

On to `CCC(=O)O[C@H]1CC(C)(C)[C@@H]2CC[C@]3(C)[C@H](CC=C4[C@@H]5CC(C)(C)CC[C@]5(C(=O)OCc5ccccc5)CC[C@]43C)[C@@]2(C)C1`, for which the IC50 came to 121 µM.

`CCCC(=O)O[C@H]1CC(C)(C)[C@@H]2CC[C@]3(C)[C@H](CC=C4[C@@H]5CC(C)(C)CC[C@]5(C(=O)OCc5ccccc5)CC[C@]43C)[C@@]2(C)C1`: the IC50 is 108 µM.

Turning to `CCCC(=O)O[C@H]1CC(C)(C)[C@@H]2CC[C@]3(C)[C@H](CC=C4[C@@H]5CC(C)(C)CC[C@]5(C(=O)O)CC[C@]43C)[C@@]2(C)C1`, the 50% inhibitory concentration (IC50) amounted to 75.6 µM.

In the case of `CC1(C)CC[C@]2(C(=O)OCc3ccccc3)CC[C@]3(C)C(=CC[C@@H]4[C@@]5(C)C[C@@H](OC(=O)c6ccccc6)CC(C)(C)[C@@H]5CC[C@]43C)[C@@H]2C1`, the IC50 worked out at 48.4 µM.

For `CC1(C)CC[C@]2(C(=O)O)CC[C@]3(C)C(=CC[C@@H]4[C@@]5(C)C[C@@H](OC(=O)c6ccccc6)CC(C)(C)[C@@H]5CC[C@]43C)[C@@H]2C1`, the IC50 was 40.7 µM.

Take `CC1(C)CC[C@]2(C(=O)OCc3ccccc3)CC[C@]3(C)C(=CC[C@@H]4[C@@]5(C)C[C@@H](OC(=O)CCC(=O)O)CC(C)(C)[C@@H]5CC[C@]43C)[C@@H]2C1`: the IC50 worked out at 80.9 µM.

Consider `CC1(C)CC[C@]2(C(=O)OCCCCBr)CC[C@]3(C)C(=CC[C@@H]4[C@@]5(C)C[C@H](O)CC(C)(C)[C@@H]5CC[C@]43C)[C@@H]2C1`, for which the half-inhibitory concentration (IC50) stood at 48.7 µM.

Regarding `C[C@@H]1[C@H]2C3=CC[C@@H]4[C@@]5(C)C[C@@H](O)CC(C)(C)[C@@H]5CC[C@@]4(C)[C@]3(C)CC[C@@]2(C(=O)OCc2ccccc2)CCC1(C)C`, the IC50 was 5.6 µM.

With `C[C@H]1[C@H](C)CC[C@]2(C(=O)OCc3ccccc3)CC[C@]3(C)C(=CC[C@@H]4[C@@]5(C)C/C(=N\O)CC(C)(C)[C@@H]5CC[C@]43C)[C@H]12`, the IC50 is 20.2 µM.

For the compound `CC1(C)CC[C@]2(C(=O)OCc3ccccc3)CC[C@]3(C)C(=CC[C@@H]4[C@@]5(C)C[C@H](O)CC(C)(C)[C@@H]5CC[C@]43C)[C@@H]2C1`, the IC50 was determined as 4.2 µM.

`CC1(C)CC[C@]2(C(=O)O)CC[C@]3(C)C(=CC[C@@H]4[C@@]5(C)C[C@@H](O)CC(C)(C)[C@@H]5CC[C@]43C)[C@@H]2C1`: the IC50 was found to be 8.5 µM.

With `CCCCOC(=O)[C@]12CCC(C)(C)C[C@H]1C1=CC[C@@H]3[C@@]4(C)C[C@H](O)CC(C)(C)[C@@H]4CC[C@@]3(C)[C@]1(C)CC2`, the IC50 is 13.8 µM.

`C=CCOC(=O)[C@]12CCC(C)(C)C[C@H]1C1=CC[C@@H]3[C@@]4(C)C[C@H](O)CC(C)(C)[C@@H]4CC[C@@]3(C)[C@]1(C)CC2`: the IC50 was 23.1 µM.

Take `COC(=O)[C@]12CCC(C)(C)C[C@H]1C1=CC[C@@H]3[C@@]4(C)C[C@H](O)CC(C)(C)[C@@H]4CC[C@@]3(C)[C@]1(C)CC2`: the IC50 stood at 28.1 µM.

For the compound `CCOC(=O)[C@]12CCC(C)(C)C[C@H]1C1=CC[C@@H]3[C@@]4(C)C[C@H](O)CC(C)(C)[C@@H]4CC[C@@]3(C)[C@]1(C)CC2`, the IC50 was 15.3 µM.

Regarding `CCCOC(=O)[C@]12CCC(C)(C)C[C@H]1C1=CC[C@@H]3[C@@]4(C)C[C@H](O)CC(C)(C)[C@@H]4CC[C@@]3(C)[C@]1(C)CC2`, the IC50 came out at 27.3 µM.

As to `C[C@H]1[C@H](C)CC[C@]2(C(=O)O)CC[C@]3(C)C(=CC[C@@H]4[C@@]5(C)C/C(=N\O)CC(C)(C)[C@@H]5CC[C@]43C)[C@H]12`, the IC50 is 14.7 µM.

As to `CC1(C)CC[C@]2(C(=O)OCCBr)CC[C@]3(C)C(=CC[C@@H]4[C@@]5(C)C[C@H](O)CC(C)(C)[C@@H]5CC[C@]43C)[C@@H]2C1`, the IC50 came out at 25.4 µM.

As for `CC1(C)CC[C@]2(C(=O)OCCCBr)CC[C@]3(C)C(=CC[C@@H]4[C@@]5(C)C[C@H](O)CC(C)(C)[C@@H]5CC[C@]43C)[C@@H]2C1`, the IC50 turned out to be 37.2 µM.

`CC1(C)CC[C@]2(C(=O)OCc3ccccc3)CC[C@]3(C)C(=CC[C@@H]4[C@@]5(C)CC(=O)CC(C)(C)[C@@H]5CC[C@]43C)[C@@H]2C1`: the IC50 turned out to be 3.2 µM.

Turning to `C[C@H]1[C@H](C)CC[C@]2(C(=O)OCc3ccccc3)CC[C@]3(C)C(=CC[C@@H]4[C@@]5(C)CC(=O)CC(C)(C)[C@@H]5CC[C@]43C)[C@H]12`, the IC50 was 24.2 µM.

On to `CC1(C)CC[C@]2(C(=O)OCc3ccccc3)CC[C@]3(C)C(=CC[C@@H]4[C@@]5(C)C/C(=N\O)CC(C)(C)[C@@H]5CC[C@]43C)[C@@H]2C1`, for which the IC50 was found to be 16.3 µM.

With `CCOC(=O)COC(=O)[C@]12CCC(C)(C)C[C@H]1C1=CC[C@@H]3[C@@]4(C)C[C@H](O)CC(C)(C)[C@@H]4CC[C@@]3(C)[C@]1(C)CC2`, the IC50 was 22.5 µM.

`CC1(C)CC[C@]2(C(=O)O)CC[C@]3(C)C(=CC[C@@H]4[C@@]5(C)C/C(=N\O)CC(C)(C)[C@@H]5CC[C@]43C)[C@@H]2C1`: the 50% inhibitory concentration (IC50) came out at 13.1 µM.

Take `CC(=O)O[C@H]1CC(C)(C)[C@@H]2CC[C@]3(C)[C@H](CC=C4[C@@H]5CC(C)(C)CC[C@]5(C(=O)O)CC[C@]43C)[C@@]2(C)C1`: the IC50 stood at 42.4 µM.

Consider `C[C@H]1[C@H](C)CC[C@]2(C(=O)O)CC[C@]3(C)C(=CC[C@@H]4[C@@]5(C)C[C@@H](O)CC(C)(C)[C@@H]5CC[C@]43C)[C@H]12`, for which the concentration for half-maximal inhibition (IC50) turned out to be 1.2 µM.

`CCC(=O)O[C@H]1CC(C)(C)[C@@H]2CC[C@]3(C)[C@H](CC=C4[C@@H]5CC(C)(C)CC[C@]5(C(=O)O)CC[C@]43C)[C@@]2(C)C1`: the 50% inhibitory concentration (IC50) came out at 80.2 µM.

`CC1(C)CC[C@]2(C(=O)O)CC[C@]3(C)C(=CC[C@@H]4[C@@]5(C)C[C@H](O)CC(C)(C)[C@@H]5CC[C@]43C)[C@@H]2C1`: the IC50 was 3.5 µM.

`C[C@@H]1[C@H]2C3=CC[C@@H]4[C@@]5(C)C[C@H](O)CC(C)(C)[C@@H]5CC[C@@]4(C)[C@]3(C)CC[C@@]2(C(=O)O)CC[C@@H]1C`: the half-maximal inhibitory concentration (IC50) was determined as 5.5 µM.

For `CC1(C)CC[C@]2(C(=O)O)CC[C@]3(C)C(=CC[C@@H]4[C@@]5(C)CC(=O)CC(C)(C)[C@@H]5CC[C@]43C)[C@@H]2C1`, the IC50 is 14.9 µM.

Regarding `C[C@H]1[C@H](C)CC[C@]2(C(=O)O)CC[C@]3(C)C(=CC[C@@H]4[C@@]5(C)CC(=O)CC(C)(C)[C@@H]5CC[C@]43C)[C@H]12`, the IC50 came out at 28.9 µM.

For `C[C@H]1[C@H](C)CC[C@]2(C(=O)O)CC[C@]3(C)C(=CC[C@@H]4[C@@]5(C)CC[C@H](O)C(C)(C)[C@@H]5CC[C@]43C)[C@H]12` [URSOLIC ACID], the IC50 worked out at 15.3 µM.

Values taken from ChEMBL document CHEMBL1153814, “Synthesis of 3-deoxypentacyclic triterpene derivatives as inhibitors of glycogen phosphorylase” (J Nat Prod, 2009).
